Experimental data published in patent US20240423245A1, “CANNABINOIDS FOR IMPROVEMENT OF P[…] LIVESTOCK” (Kansas State University Research Foundation, priority 2021, published 2024).
Where “and” joins values, the source holds several entries; their conditions need not be identical. Identical values can stand only once. Like-named read-outs stand apart in the source and are kept apart here.

Experiments:
[1] = Plasma cannabinoid concentrations and pharmacokinetics during 14-day industrial hemp feeding; type: in vivo, Holstein cattle; details: for number of plasma samples in which cannabinoid was detected: of 288 samples from HEMP (IH) cattle; for detection in plasma: HEMP cattle, doses 0.005 mg/kg CBDVA, 0.2 mg/kg CBGA, 0.1 mg/kg THCA-A; for half-life / Cmax / AUC(0-inf) / AUC(0-t) / MRT inf / Tmax: Holstein, bovine; for MRT inf: read-out: MRT0-∞
Experimental: Cattle in the HEMP group were individually fed 25 g IH mixed in 200 g grain placed in rubber feed pans at 07:00 daily for 14 days. The IH was fed at 25 g per animal per day to target a mean dose of CBDA of 5.5 mg/kg. Daily IH feeding was after the daily blood sample for cattle in the HEMP group.
Cattle were blood sampled at predetermined time points from the jugular or coccygeal veins using a needle and vacutainer. Whole blood was collected into tubes containing sodium heparin, EDTA, sodium citrate, and no additives. Blood samples from the HEMP cattle were obtained prior to initial IH feeding (day −1) and 8 and 12 h post-initial IH feeding; then every 12 h (prior to the next IH feeding); then (starting 12 hours after the last IH feeding) every 24 hours for 5 samples or 108 h after the last IH feeding Cattle in the CNTL group were blood sampled −24 h prior to the initial IH feeding; and on day 7, 14 and 19 post-initial IH feeding.
Plasma cannabinoid concentrations were determined using UPLC-MS methods. All solvents used such as methanol, acetonitrile, isopropanol, formic acid were LC-MS grade. Cannabinoids standards were purchased in individual solutions in methanol (Cerilliant Corporation, Round Rock, TX), including: (±)-cis-11-Nor-9-carboxy-A 9-tetrahydrocannabinol glucuronide (THC-glu), (±)-11-Hydroxy-Δ9-tetrahydrocannabinol (THC-OH), cannabidivarinic acid (CBDVA), cannabidivarin (CBDV), cannabidiol (CBD), cannabidiolic acid (CBDA), Δ9-Tetrahydrocannabinolic acid A (THCA-A), cannabigerolic acid (CBGA), cannabigerol (CBG), Δ9-tetrahydrocannabinol (9-THC), Δ8-tetrahydrocannabinol (8-THC), cannabichromene (CBC), Δ9-tetrahydrocannabivarin (THCV), cannabichromenic Acid (CBCA), cannabinol (CBN), (−)-11-nor-9-Carboxy-Δ9-tetrahydrocannabinol (THC-acid). Cannabinoid analogs used as internal standards were also purchased in solution in methanol at 100 μg/ml (Cerilliant Corporation, Round Rock, TX): (±)-cis-11-Nor-9-carboxy-Δ9-tetrahydrocannabinol glucuronide (THC-glu-d3), Cannabidiol-d3 (CBD-d3), Δ9-Tetrahydrocannabinol-d3 (9-THC-d3), (±)-11-nor-9-Carboxy-D9-tetrahydrocannabinol-d9 (THC-acid-d9), (±)-11-Hydroxy-Δ9-tetrahydrocannabinol-d3 (THC-OH-d3), Cannabichromene-do (CBC-d9). All cannabinoids standards were kept in the freezer at −20° C. On the day of analysis, plasma samples were allowed to thaw. Plasma (samples, quality controls or negative control plasma) were mixed with the internal standard mixture at 200 ng/mL (not added to the negative control sample) and acetonitrile with 0.1% formic acid to precipitate the proteins. The mixture was vortexed for 5 seconds and centrifuge for 5 minutes at 7,000 g. The supernatant was then diluted with ultra-pure […] water before clean-up. The sample was loaded on a solid phase extraction plate using positive pressure nitrogen. Each well was washed twice with 0.25 mL of a mixture of methanol-water (25:75). The compounds were eluted with two-25 μL aliquots of acetonitrile-methanol (90:10) and diluted with 50 μL of water before analysis.
Cannabinoid analysis was performed using an Acquity H UPLC and a TQ-S triple quadrupole mass spectrometer (Waters Corp., Milford, MA). The chromatographic separation was performed with a UPLC column (Eclipse Plus C18, Agilent Technologies, Santa Clara, CA) 100×2.1 mm, 1.8μ, heated at 55° C. The flow rate was set at 0.5 mL/min, the mobile phase consisted of a gradient of acetonitrile (B) and water containing 0.1% formic acid (A) as follow: 0 min: 60% B, 6.50 min: 86% B, 7.50 min-9 min: 100% B, 9.01 m in 12 min: 60% B. The total run time was 12 min. The injection volume was 5 μL. The data acquisition was performed by electrospray ionization in positive and negative mode using multiple reaction monitoring. Linear regression with a weighing factor of 1/X was used and accepted if the coefficient of correlation R^2 was >0.99. Calibration curves were linear from 0.1 to 100 ng/ml for all cannabinoids. […]

[2] = cited from earlier work
[3] = plasma, po, 5.5 mg/kg, geometric mean, IH fed 14 days, target dose 5.5 mg/kg CBDA, n = 8
[4] = plasma, po, 5.5 mg/kg, median, IH fed 14 days, target dose 5.5 mg/kg CBDA, n = 8
[5] = geometric mean, IH fed 14 days, target dose 5.5 mg/kg CBDA, n = 8
[6] = median, IH fed 14 days, target dose 5.5 mg/kg CBDA, n = 8
[7] = plasma, initial hemp feeding period

**Q.** Which “number of plasma samples in which cannabinoid was detected” value [1] does the source give for `C=C(C)[C@@H]1CCC(C)=C[C@H]1c1c(O)cc(CCCCC)cc1O` [CBD, cannabidiol, reference compound] here?
**A.** 159

**Q.** For `C=C(C)[C@@H]1CCC(C)=C[C@H]1c1c(O)cc(CCC)c(C(=O)O)c1O` [CBDVA, cannabidivarinic acid], which detection in plasma [1] is on record?
**A.** detected in the plasma of all cattle

**Q.** With `CCCCCc1cc(O)c(C/C=C(\C)CCC=C(C)C)c(O)c1C(=O)O` [CBGA, cannabigerolic acid] as the compound, how does the detection in plasma [1] read?
**A.** detected in the plasma of all cattle

**Q.** What does the source list for `C=C(C)[C@@H]1CCC(C)=C[C@H]1c1c(O)cc(CCCCC)c(C(=O)O)c1O` [CBDA, cannabidiolic acid]?
**A.** half-life ([1]; plasma, oral, 5.5 mg/kg, geometric mean, IH fed 14 days, target dose 5.5 mg/kg CBDA, n = 8, read-out: T1/2 (terminal half-life) (converted)): 15 h; Cmax ([1]; plasma, oral, 5.5 mg/kg, geometric mean, initial hemp feeding period, target dose 5.5 mg/kg CBDA, n = 8): 22 ng/mL; AUC(0-inf) [1, 3]: 13600 ng·h/mL; AUC(0-t) [1, 3]: 13500 ng·h/mL; MRT inf [1, 3]: 822 h; half-life ([1]; plasma, po, 5.5 mg/kg, geometric mean, IH fed 14 days, target dose 5.5 mg/kg CBDA, n = 8, read-out: T1/2 (terminal half-life) (converted)): 15.3 h; Tmax ([1]; plasma, po, 5.5 mg/kg, geometric mean, after the initial IH feeding, target dose 5.5 mg/kg CBDA, n = 8): 16.7 h; Cmax ([1]; plasma, po, 5.5 mg/kg, geometric mean, initial hemp feeding period, target dose 5.5 mg/kg CBDA, n = 8): 22.1 ng/mL; AUC(0-inf) [1, 4]: 13600 ng·h/mL; AUC(0-t) [1, 4]: 13500 ng·h/mL; Cmax [1, 4]: 22.2 ng/mL; Tmax [1, 4]: 24 h; MRT inf [1, 4]: 772 h; half-life ([1]; plasma, po, 5.5 mg/kg, median, IH fed 14 days, target dose 5.5 mg/kg CBDA, n = 8, read-out: T1/2 (converted)): 14.8 h; time to plasma steady state concentrations ([1]; daily IH administration, visual inspection of the data): approximately 7 days; Accumulation (index/ratio) ([1]; geometric mean / mean, 14-day feeding period, target dose 5.5 mg/kg CBDA, n = 8, 5.5 mg/kg): 1.5 and 1.52; AUC extrapolated [1, 5]: 0.38%; λz [1, 5]: 0.05 h⁻¹; AUC extrapolated [1, 6]: 0.49%; Accumulation [1, 6]: 1.49; λz [1, 6]: 0.05 h⁻¹; geometric mean minimum concentration [1, 7]: 12.3 ng/mL; time of minimum concentration after the initial IH feeding [1, 7]: 9.3 h; maximum CBDA concentration (Cmax), previously reported ([2]; earlier published study): 72.7 ng/mL; terminal half-life, previously published ([2]; earlier published study): 14 h; time of peak concentrations post-exposure ([2]; single oral dosing of IH): 12 to 24 h

**Q.** Which detection in plasma [1] does the source give for `CCCCCc1cc2c(c(O)c1C(=O)O)[C@@H]1C=C(C)CC[C@H]1C(C)(C)O2` [THCA-A, tetrahydrocannabinolic acid A] here?
**A.** detected in the plasma of all cattle

**Q.** With `CCCCCc1cc2c(c(O)c1C(=O)O)C=CC(C)(CCC=C(C)C)O2` (stereo not shown) [CBCA, cannabichromenic acid] as the compound, how does the “number of plasma samples in which cannabinoid was detected” value [1] read?
**A.** 93
